Several values for one entry are separate records, joined by “and”; a condition that tells them apart may be missing. Identical values can stand only once. Inconclusive results and toxic doses are left out. The calls were made as follows: active = survival T/C of 150% or more; inactive = T/C below 125% in these data.
System: P388 leukemia ip, CD2F1 mice, survival T/C
Test: NCI In Vivo Anticancer Drug Screen. Data for tumor model P388 Leukemia (intraperitoneal) in CD2F1 (CDF1) mice
Details: endpoint: median survival time, higher = longer survival
How it was run: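 Mice carrying the transplanted tumor received test compound or vehicle. Survival was recorded in each group, and the value is the treated-group measurement divided by that of the vehicle-treated control group.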

[1] = dose: 60.0 mg/kg/injection, schedule: Q01DX005 (ip), vehicle: saline with Tween-80
[2] = dose: 120.0 mg/kg/injection, schedule: Q01DX005 (ip), vehicle: saline with Tween-80
[3] = dose: 240.0 mg/kg/injection, schedule: Q01DX005 (ip), vehicle: saline with Tween-80
[4] = dose: 50.0 mg/kg/injection, schedule: Q01DX005 (ip), vehicle: saline with Tween-80
[5] = dose: 100.0 mg/kg/injection, schedule: Q01DX005 (ip), vehicle: saline with Tween-80
[6] = dose: 200.0 mg/kg/injection, schedule: Q01DX005 (ip), vehicle: saline with Tween-80
[7] = dose: 50.0 mg/kg/injection, schedule: Q01DX009 (ip), vehicle: Klucel (hydroxypropylcellulose) (HPC)
[8] = dose: 100.0 mg/kg/injection, schedule: Q01DX009 (ip), vehicle: Klucel (hydroxypropylcellulose) (HPC)
[9] = dose: 50.0 mg/kg/injection, schedule: Q01DX009 (ip), vehicle: saline with Tween-80
[10] = dose: 100.0 mg/kg/injection, schedule: Q01DX009 (ip), vehicle: saline with Tween-80

Measured: T/C

COc1ccc(-n2c(=O)c(N=Nc3ccccc3OC)c(O)n(-c3ccccc3Cl)c2=S)cc1
inactive: dose: 50.0 mg/kg/injection, schedule: Q01DX001 (ip), vehicle: Klucel (hydroxypropylcellulose) (HPC) 100 % of control | dose: 100.0 mg/kg/injection, schedule: Q01DX001 (ip), vehicle: Klucel (hydroxypropylcellulose) (HPC) 99 % of control | dose: 200.0 mg/kg/injection, schedule: Q01DX001 (ip), vehicle: Klucel (hydroxypropylcellulose) (HPC) 93 % of control

CCCCCCCCCCN(CCCCCCCCCC)C1CC(OC2CC(O)(C(C)O)Cc3c(O)c4c(c(O)c32)C(=O)c2c(OC)cccc2C4=O)OC(C)C1O (configuration not stated)
inactive: dose: 4.7 mg/kg/injection, schedule: Q04DX003 (ip), vehicle: water 99 % of control | dose: 9.4 mg/kg/injection, schedule: Q04DX003 (ip), vehicle: water 99 % of control | dose: 18.8 mg/kg/injection, schedule: Q04DX003 (ip), vehicle: water 101 % of control | dose: 37.5 mg/kg/injection, schedule: Q04DX003 (ip), vehicle: water 110 % of control | dose: 75.0 mg/kg/injection, schedule: Q04DX003 (ip), vehicle: water 101 % of control

O=C1CCC2(CC1C1C=CCC1)OCCO2 (configuration not stated)
inactive: dose: 100.0 mg/kg/injection, schedule: Q01DX009 (ip), vehicle: saline sonified 100 % of control | dose: 200.0 mg/kg/injection, schedule: Q01DX009 (ip), vehicle: saline sonified 116 % of control | dose: 400.0 mg/kg/injection, schedule: Q01DX009 (ip), vehicle: saline sonified 100 % of control

CCCCCCCCCCCCCCCCCCCCCCCCC(O)C(=O)NC(CO)C(O)C(O)CCCCCCCCCCCCCC (configuration not stated)
inactive: dose: 1.56 mg/kg/injection, schedule: Q04DX003 (ip), vehicle: saline with Tween-80 91 % of control | dose: 3.13 mg/kg/injection, schedule: Q04DX003 (ip), vehicle: saline with Tween-80 100 % of control | dose: 6.25 mg/kg/injection, schedule: Q04DX003 (ip), vehicle: saline with Tween-80 95 % of control

CCCCP(=O)(CC(=O)O)c1ccccc1 (configuration not stated)
inactive: [1] 98 % of control | [2] 99 % of control | [3] 102 % of control

C=CCOc1cc2c(cc1C(C)c1ccc(F)cc1)OCO2 (configuration not stated)
inactive: [4] 100 % of control | [5] 104 % of control | [6] 100 % of control

CCCCCCCCCCCCCCCCCCCC
inactive: dose: 6.25 mg/kg/injection, schedule: Q01DX009 (ip), vehicle: other 112 % of control | dose: 12.5 mg/kg/injection, schedule: Q01DX009 (ip), vehicle: other 90 % of control | dose: 25.0 mg/kg/injection, schedule: Q01DX009 (ip), vehicle: other 111 % of control | dose: 50.0 mg/kg/injection, schedule: Q04DX003 (ip), vehicle: other 91 % of control | dose: 100.0 mg/kg/injection, schedule: Q04DX003 (ip), vehicle: other 91 % of control

Cc1c(C)n(-c2ccccc2)c2nc(C)n(-c3ccccc3Cl)c(=N)c12
inactive: dose: 50.0 mg/kg/injection, schedule: Q01DX005 (ip), vehicle: Klucel (hydroxypropylcellulose) (HPC) 97 % of control | dose: 100.0 mg/kg/injection, schedule: Q01DX005 (ip), vehicle: Klucel (hydroxypropylcellulose) (HPC) 90 % of control

O=C(O)c1ccccc1-c1c2ccc(=Nc3ccccc3)cc-2oc2cc(Nc3ccc(S(=O)(=O)O)cc3)ccc12
inactive: dose: 50.0 mg/kg/injection, schedule: Q01DX005 (ip), vehicle: saline 94 % of control | dose: 100.0 mg/kg/injection, schedule: Q01DX005 (ip), vehicle: saline 98 % of control | dose: 200.0 mg/kg/injection, schedule: Q01DX005 (ip), vehicle: saline 111 % of control

NCCCCNC(c1ccccc1)C(O)c1ccccc1 (configuration not stated)
inactive: [7] 100 % of control | [8] 99 % of control

Cc1cc(OC(=O)N(C)C)nc(SCC(=O)c2ccc(Cl)cc2)n1
inactive: [7] 99 % of control | [8] 103 % of control | dose: 200.0 mg/kg/injection, schedule: Q01DX009 (ip), vehicle: Klucel (hydroxypropylcellulose) (HPC) 107 % of control

O=C(O)c1cc(Cc2ccc(O)c(C(=O)O)c2)ccc1O (tested in a mixture with another compound)
inactive: dose: 25.0 mg/kg/injection, schedule: Q01DX009 (ip), vehicle: Klucel (hydroxypropylcellulose) (HPC) 112 % of control | [7] 107 % of control and 115 % of control | [8] 121 % of control

O=C1CSC(c2ccc(F)cc2)N1c1nncs1 (configuration not stated)
inactive: [1] 99 % of control | [2] 97 % of control | [3] 101 % of control

CC(C)CC(NC(=O)C(Cc1ccccc1)NC(=O)CNC(=O)C(C)NC(=O)C(N)Cc1ccc(O)cc1)C(=O)O (configuration not stated)
inactive: [4] 93 % of control | [5] 109 % of control | [6] 91 % of control

CCOC1(OCC)Cc2nc3ccccc3cc21
inactive: dose: 50.0 mg/kg/injection, schedule: Q01DX005 (ip), vehicle: saline + Tween-80 + alcohol 106 % of control | dose: 100.0 mg/kg/injection, schedule: Q01DX005 (ip), vehicle: saline + Tween-80 + alcohol 109 % of control | dose: 200.0 mg/kg/injection, schedule: Q01DX005 (ip), vehicle: saline + Tween-80 + alcohol 106 % of control

Cc1cccc(N=Nc2c(-c3ccccc3)nn(C(=S)S)c2C)c1C
inactive: dose: 12.5 mg/kg/injection, schedule: Q01DX001 (ip), vehicle: saline with Tween-80 100 % of control | dose: 25.0 mg/kg/injection, schedule: Q01DX001 (ip), vehicle: saline with Tween-80 96 % of control | dose: 50.0 mg/kg/injection, schedule: Q01DX001 (ip), vehicle: saline with Tween-80 96 % of control | dose: 200.0 mg/kg/injection, schedule: Q01DX001 (ip), vehicle: saline with Tween-80 91 % of control | dose: 400.0 mg/kg/injection, schedule: Q01DX001 (ip), vehicle: saline with Tween-80 99 % of control

COC(=O)C1(CC(=O)c2ccc(F)cc2)NC(=S)NC(=O)C1C#N (configuration not stated)
inactive: [1] 99 % of control | [2] 98 % of control | [3] 106 % of control

C=CC1CN2CCC1CC2C(O)c1ccnc2ccc(OC)cc12 (configuration not stated) (tested in a mixture with another compound)
inactive: [9] 109 % of control | [10] 109 % of control

O=C(CCl)N1CCN(c2ccccc2)CC1
inactive: [1] 97 % of control | [2] 100 % of control | [3] 97 % of control

C=CC(C1=CC(=O)C(OC)=CC1=O)c1ccccc1 (configuration not stated)
inactive: dose: 2.5 mg/kg/injection, schedule: Q01DX009 (ip), vehicle: saline with Tween-80 101 % of control | dose: 5.0 mg/kg/injection, schedule: Q01DX009 (ip), vehicle: saline with Tween-80 103 % of control | dose: 10.0 mg/kg/injection, schedule: Q01DX009 (ip), vehicle: saline with Tween-80 102 % of control

O=c1[nH]c2ccc(Br)cc2c(=O)o1
inactive: dose: 12.5 mg/kg/injection, schedule: Q01DX009 (ip), vehicle: saline with Tween-80 104 % of control | dose: 25.0 mg/kg/injection, schedule: Q01DX009 (ip), vehicle: saline with Tween-80 102 % of control | [9] 110 % of control | dose: 100.0 mg/kg/injection, schedule: Q01DX001 (ip), vehicle: other 100 % of control | [10] 114 % of control | dose: 200.0 mg/kg/injection, schedule: Q01DX001 (ip), vehicle: other 100 % of control | dose: 400.0 mg/kg/injection, schedule: Q01DX001 (ip), vehicle: other 95 % of control

Clc1ccc([Si]23OCCN(CCO2)CCO3)cc1
inactive: dose: 0.19 mg/kg/injection, schedule: Q01DX009 (ip), vehicle: Klucel (hydroxypropylcellulose) (HPC) 93 % of control | dose: 0.39 mg/kg/injection, schedule: Q01DX009 (ip), vehicle: Klucel (hydroxypropylcellulose) (HPC) 99 % of control | dose: 0.78 mg/kg/injection, schedule: Q01DX009 (ip), vehicle: Klucel (hydroxypropylcellulose) (HPC) 108 % of control

O=C(NCCNC(=O)[C@H]1CCCN1)[C@H]1CCCN1
inactive: dose: 60.0 mg/kg/injection, schedule: Q01DX005 (ip), vehicle: saline 98 % of control | dose: 120.0 mg/kg/injection, schedule: Q01DX005 (ip), vehicle: saline 91 % of control | dose: 240.0 mg/kg/injection, schedule: Q01DX005 (ip), vehicle: saline 93 % of control

O=C(O)Cc1sc(=O)[nH]c1O
inactive: dose: 100.0 mg/kg/injection, schedule: Q04DX003 (ip), vehicle: saline 100 % of control | dose: 200.0 mg/kg/injection, schedule: Q04DX003 (ip), vehicle: saline 100 % of control | dose: 400.0 mg/kg/injection, schedule: Q04DX003 (ip), vehicle: saline 95 % of control

OCc1nc(-c2ccccc2)sc1-c1cnc2ccccc2n1
inactive: dose: 100.0 mg/kg/injection, schedule: Q04DX002 (ip), vehicle: Klucel (hydroxypropylcellulose) (HPC) 104 % of control | dose: 200.0 mg/kg/injection, schedule: Q04DX002 (ip), vehicle: Klucel (hydroxypropylcellulose) (HPC) 99 % of control | dose: 400.0 mg/kg/injection, schedule: Q04DX002 (ip), vehicle: Klucel (hydroxypropylcellulose) (HPC) 101 % of control

Source: PubChem BioAssay AID330 (DTP/NCI, 2004)
